Test results as given in ChEMBL document CHEMBL1208783, “An orally bioavailable positive allosteric modulator of the mGlu4 receptor with efficacy in an animal model of motor dysfunction” (Bioorg Med Chem Lett, 2010).
One block for each compound: values may come before it.

Tests used:
[1] = biological target: T1, Metabotropic glutamate receptor 4 (Homo sapiens, UniProt Q14833); assay: Positive allosteric modulation of human mGluR4 expressed in CHO-K1 cells assessed as decrease in forskolin-induced intracellular cAMP accumulation after 1 hr by fluorescence assay; type: functional, cell-based
T1 sequence (Q14833 whole entry): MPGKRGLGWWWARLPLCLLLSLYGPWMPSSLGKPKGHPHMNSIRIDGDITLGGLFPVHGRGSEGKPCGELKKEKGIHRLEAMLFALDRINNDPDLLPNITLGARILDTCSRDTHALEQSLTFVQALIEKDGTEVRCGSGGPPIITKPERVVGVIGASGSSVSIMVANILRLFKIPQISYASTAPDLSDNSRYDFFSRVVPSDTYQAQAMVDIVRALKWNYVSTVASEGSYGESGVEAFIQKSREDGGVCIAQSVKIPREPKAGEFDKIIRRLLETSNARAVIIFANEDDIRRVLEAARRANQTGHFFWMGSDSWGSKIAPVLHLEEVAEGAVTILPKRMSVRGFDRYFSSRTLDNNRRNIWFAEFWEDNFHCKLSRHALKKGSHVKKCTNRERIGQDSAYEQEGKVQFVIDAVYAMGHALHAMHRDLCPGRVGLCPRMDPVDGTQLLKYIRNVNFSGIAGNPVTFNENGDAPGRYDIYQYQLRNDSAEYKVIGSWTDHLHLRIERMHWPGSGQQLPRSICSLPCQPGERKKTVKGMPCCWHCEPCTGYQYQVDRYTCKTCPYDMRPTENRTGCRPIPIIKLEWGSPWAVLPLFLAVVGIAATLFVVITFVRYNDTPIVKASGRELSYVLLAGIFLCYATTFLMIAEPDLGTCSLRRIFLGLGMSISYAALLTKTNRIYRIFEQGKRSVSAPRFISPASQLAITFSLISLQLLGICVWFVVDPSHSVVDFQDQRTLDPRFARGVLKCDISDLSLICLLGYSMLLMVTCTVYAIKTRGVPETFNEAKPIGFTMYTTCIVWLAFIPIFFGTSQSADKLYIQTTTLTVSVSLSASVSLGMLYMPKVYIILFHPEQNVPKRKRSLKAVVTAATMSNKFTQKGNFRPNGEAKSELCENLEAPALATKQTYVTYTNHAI

[2] = biological target: T1, Metabotropic glutamate receptor 4; assay: Positive allosteric modulation of human mGluR4 expressed in CHO-K1 cells assessed as decrease in forskolin-induced intracellular cAMP accumulation after 1 hr by fluorescence assay relative to (-)-PHCC; type: functional, cell-based
[3] = Drug level in rat brain at 30 mg/kg, po measured at 30 mins post dose; type: ADME, organism-based; parameters: dose 30 mg/kg, route oral; settings: read-out: Drug uptake
[4] = Ratio of drug level in brain to plasma in rat at 30 mg/kg, po measured at 30 mins post dose; type: ADME, organism-based; parameters: dose 30 mg/kg, route oral; settings: read-out: BPR
[5] = biological target: T1, Metabotropic glutamate receptor 4; assay: Agonist activity at human mGluR4 expressed in CHO-K1 cells; type: functional, cell-based
[6] = biological target: T2, Metabotropic glutamate receptor 5 (Homo sapiens, UniProt P41594); assay: Negative allosteric modulation of human mGluR5 expressed in CHO-K1 cells; type: cell-based
T2 sequence (P41594 whole entry): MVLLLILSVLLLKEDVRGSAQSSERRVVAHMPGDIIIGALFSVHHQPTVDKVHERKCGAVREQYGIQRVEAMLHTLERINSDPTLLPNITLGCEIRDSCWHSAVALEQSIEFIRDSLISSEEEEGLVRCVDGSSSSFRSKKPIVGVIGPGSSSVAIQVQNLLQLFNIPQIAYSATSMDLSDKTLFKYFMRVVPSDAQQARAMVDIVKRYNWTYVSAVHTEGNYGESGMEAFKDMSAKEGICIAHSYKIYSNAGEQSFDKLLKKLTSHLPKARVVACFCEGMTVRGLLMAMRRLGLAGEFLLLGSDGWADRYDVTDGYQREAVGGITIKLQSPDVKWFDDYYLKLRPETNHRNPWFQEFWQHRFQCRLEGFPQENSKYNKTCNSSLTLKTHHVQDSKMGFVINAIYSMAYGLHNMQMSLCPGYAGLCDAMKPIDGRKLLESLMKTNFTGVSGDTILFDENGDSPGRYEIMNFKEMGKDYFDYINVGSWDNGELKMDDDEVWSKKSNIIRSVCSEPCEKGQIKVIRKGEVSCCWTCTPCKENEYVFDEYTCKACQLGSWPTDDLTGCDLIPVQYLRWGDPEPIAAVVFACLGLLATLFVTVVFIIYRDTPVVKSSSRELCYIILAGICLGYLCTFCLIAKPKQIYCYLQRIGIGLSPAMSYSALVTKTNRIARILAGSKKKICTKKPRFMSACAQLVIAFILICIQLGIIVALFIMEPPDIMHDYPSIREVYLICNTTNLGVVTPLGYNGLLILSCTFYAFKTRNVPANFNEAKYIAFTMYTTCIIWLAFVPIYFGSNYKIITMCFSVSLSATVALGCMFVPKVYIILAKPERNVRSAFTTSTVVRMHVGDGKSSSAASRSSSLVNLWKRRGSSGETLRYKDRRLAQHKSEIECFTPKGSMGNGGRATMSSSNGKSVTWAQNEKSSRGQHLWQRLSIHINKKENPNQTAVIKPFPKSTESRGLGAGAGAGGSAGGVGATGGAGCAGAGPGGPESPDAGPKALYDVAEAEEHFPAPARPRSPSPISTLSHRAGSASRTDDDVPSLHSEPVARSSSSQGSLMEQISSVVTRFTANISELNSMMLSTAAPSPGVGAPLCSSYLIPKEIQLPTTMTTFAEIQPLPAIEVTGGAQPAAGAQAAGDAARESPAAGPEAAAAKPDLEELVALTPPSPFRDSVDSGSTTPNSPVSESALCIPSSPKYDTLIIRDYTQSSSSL

[7] = biological target: T2, Metabotropic glutamate receptor 5; assay: Positive allosteric modulation of human mGluR5 expressed in CHO-K1 cells; type: cell-based
[8] = biological target: T2, Metabotropic glutamate receptor 5; assay: Agonist activity at human mGluR5 expressed in CHO-K1 cells in absence of glutamate; type: functional, cell-based
[9] = biological target: Metabotropic glutamate receptor 4 (Rattus norvegicus, UniProt P31423); assay: Positive allosteric modulation of rat mGluR4 expressed in CHO-K1 cells; type: cell-based
[10] = biological target: Metabotropic glutamate receptor 5 (Rattus norvegicus, UniProt P31424); assay: Negative allosteric modulation of rat mGluR5 expressed in CHO-K1 cells; type: cell-based
Metabotropic glutamate receptor 5 (Rattus norvegicus, UniProt P31424), sequence (P31424 whole entry): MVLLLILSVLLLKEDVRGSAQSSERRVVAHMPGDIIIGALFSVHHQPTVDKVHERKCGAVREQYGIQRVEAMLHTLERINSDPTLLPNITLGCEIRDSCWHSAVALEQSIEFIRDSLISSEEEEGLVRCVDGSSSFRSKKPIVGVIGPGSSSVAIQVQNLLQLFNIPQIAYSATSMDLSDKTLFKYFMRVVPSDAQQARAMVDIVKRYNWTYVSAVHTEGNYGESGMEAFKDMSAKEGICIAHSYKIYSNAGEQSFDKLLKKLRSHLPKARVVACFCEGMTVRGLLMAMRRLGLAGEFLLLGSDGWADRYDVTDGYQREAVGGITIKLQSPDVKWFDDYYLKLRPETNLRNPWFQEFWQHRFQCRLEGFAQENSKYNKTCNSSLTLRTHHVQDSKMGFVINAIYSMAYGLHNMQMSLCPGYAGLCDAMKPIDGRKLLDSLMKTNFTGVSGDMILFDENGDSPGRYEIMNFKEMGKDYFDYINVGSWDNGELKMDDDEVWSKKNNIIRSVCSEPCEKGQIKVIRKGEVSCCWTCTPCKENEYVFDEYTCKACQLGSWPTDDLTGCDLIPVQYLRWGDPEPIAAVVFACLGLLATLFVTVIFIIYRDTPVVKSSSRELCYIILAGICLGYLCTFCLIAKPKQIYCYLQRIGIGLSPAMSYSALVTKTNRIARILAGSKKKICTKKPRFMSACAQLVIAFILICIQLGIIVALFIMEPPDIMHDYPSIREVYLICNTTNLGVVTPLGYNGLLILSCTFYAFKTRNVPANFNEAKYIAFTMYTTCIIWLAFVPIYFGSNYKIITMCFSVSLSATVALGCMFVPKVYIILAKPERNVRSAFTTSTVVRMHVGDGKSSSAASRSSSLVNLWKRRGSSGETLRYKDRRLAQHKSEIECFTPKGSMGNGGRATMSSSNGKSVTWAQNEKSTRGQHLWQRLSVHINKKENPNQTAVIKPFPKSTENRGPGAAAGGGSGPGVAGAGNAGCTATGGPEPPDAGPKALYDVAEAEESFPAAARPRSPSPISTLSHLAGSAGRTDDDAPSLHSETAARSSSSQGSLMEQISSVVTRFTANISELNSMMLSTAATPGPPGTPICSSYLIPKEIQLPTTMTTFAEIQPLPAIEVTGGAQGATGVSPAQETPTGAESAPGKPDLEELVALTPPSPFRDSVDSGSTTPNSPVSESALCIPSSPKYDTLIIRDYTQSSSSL

[11] = biological target: Adenosine receptor A2a (Homo sapiens) (UniProt P29274); assay: Activity at adenosine A2A receptor at 10 uM
[12] = biological target: T3, 5-hydroxytryptamine receptor 1A (Homo sapiens) (UniProt P08908); assay: Activity at 5HT1A receptor at 10 uM
T3 sequence (whole entry): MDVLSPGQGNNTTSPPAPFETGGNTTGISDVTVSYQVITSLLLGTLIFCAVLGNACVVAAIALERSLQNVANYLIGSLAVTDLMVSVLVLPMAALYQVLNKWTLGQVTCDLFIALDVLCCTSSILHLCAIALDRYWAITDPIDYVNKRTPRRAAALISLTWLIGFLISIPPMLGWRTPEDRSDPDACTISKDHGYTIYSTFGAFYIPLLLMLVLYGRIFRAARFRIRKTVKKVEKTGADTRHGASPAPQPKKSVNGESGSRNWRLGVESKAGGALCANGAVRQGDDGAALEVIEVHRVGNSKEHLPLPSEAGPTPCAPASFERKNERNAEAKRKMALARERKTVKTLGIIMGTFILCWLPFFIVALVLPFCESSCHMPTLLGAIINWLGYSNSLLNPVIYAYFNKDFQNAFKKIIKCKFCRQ

[13] = biological target: T4, Alpha-2A adrenergic receptor (Homo sapiens) (UniProt P08913); assay: Activity at adrenergic alpha 2A receptor at 10 uM
T4 sequence (whole entry): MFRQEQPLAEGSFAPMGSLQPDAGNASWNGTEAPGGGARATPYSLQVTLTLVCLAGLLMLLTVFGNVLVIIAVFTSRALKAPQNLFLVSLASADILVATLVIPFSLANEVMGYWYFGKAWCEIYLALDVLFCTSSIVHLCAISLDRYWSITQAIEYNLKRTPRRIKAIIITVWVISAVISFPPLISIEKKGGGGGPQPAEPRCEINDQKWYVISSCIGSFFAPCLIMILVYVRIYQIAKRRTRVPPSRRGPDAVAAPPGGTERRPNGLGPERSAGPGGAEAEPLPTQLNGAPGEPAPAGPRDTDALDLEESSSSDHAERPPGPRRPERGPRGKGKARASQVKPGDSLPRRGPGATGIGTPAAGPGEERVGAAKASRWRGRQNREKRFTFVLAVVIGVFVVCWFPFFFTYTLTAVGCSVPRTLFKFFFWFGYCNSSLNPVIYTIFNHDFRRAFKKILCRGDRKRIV

[14] = Permeability from apical to basolateral side of human Caco-2 cells; type: ADME, cell-based; settings: read-out: permeability
[15] = Permeability from basolateral to apical side of human Caco-2 cells; type: ADME, cell-based; settings: read-out: permeability
[16] = Plasma protein binding in rat; type: ADME, cell-free; settings: read-out: PPB (converted)
[17] = Metabolic stability in human microsomes; type: ADME, Microsome
[18] = Metabolic stability in rat microsomes; type: ADME, Microsome
Rattus norvegicus [19] = species on record: Rattus norvegicus; assay: Hepatic blood flow in rat; type: ADME, organism-based, Liver
Homo sapiens = species on record: Homo sapiens; assay: Hepatic blood flow in human; type: ADME, organism-based, Liver
[20] = Clearance in rat at 2 mg/kg, iv; type: ADME, organism-based; parameters: dose 2 mg/kg, route intravenous; settings: in vivo
[21] = Volume of distribution in rat at 2 mg/kg, iv; type: ADME, organism-based; parameters: dose 2 mg/kg, route intravenous; settings: in vivo
[22] = Mean residence time in rat at 2 mg/kg, iv; type: ADME, organism-based; parameters: dose 2 mg/kg, route intravenous; settings: in vivo, read-out: Time
[23] = Oral bioavailability in rat at 30 mg/kg, po after 30 mins; type: ADME, organism-based; settings: in vivo
[24] = Drug level in rat plasma at 30 mg/kg, po measured at 30 mins post dose; type: ADME, organism-based; parameters: dose 30 mg/kg, route oral; settings: read-out: Drug uptake
[25] = Drug level in rat CSF at 30 mg/kg, po measured at 30 mins post dose; type: ADME, organism-based, Cerebrospinal fluid; parameters: dose 30 mg/kg, route oral; settings: read-out: Drug uptake
Cytochrome P450 3A4 = Cytochrome P450 3A4 (Homo sapiens, UniProt P08684); assay: Inhibition of CYP3A4 up to 50 uM; type: ADME
Cytochrome P450 3A4, sequence (P08684 whole entry): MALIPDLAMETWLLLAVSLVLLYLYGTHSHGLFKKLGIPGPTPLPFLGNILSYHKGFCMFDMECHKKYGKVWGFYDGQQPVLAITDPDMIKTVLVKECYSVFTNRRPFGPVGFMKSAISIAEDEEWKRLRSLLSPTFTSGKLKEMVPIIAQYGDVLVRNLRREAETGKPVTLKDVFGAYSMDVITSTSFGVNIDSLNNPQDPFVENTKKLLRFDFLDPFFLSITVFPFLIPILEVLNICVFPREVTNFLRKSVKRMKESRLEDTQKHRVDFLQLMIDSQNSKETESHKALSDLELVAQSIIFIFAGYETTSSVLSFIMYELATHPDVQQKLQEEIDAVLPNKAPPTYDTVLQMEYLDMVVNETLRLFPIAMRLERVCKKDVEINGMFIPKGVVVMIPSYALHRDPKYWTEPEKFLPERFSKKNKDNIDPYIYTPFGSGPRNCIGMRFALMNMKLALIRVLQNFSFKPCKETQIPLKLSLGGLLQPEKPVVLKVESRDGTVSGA

Cytochrome P450 2D6 = Cytochrome P450 2D6 (Homo sapiens, UniProt P10635); assay: Inhibition of CYP2D6 up to 50 uM; type: ADME
Cytochrome P450 2D6, sequence (P10635 whole entry): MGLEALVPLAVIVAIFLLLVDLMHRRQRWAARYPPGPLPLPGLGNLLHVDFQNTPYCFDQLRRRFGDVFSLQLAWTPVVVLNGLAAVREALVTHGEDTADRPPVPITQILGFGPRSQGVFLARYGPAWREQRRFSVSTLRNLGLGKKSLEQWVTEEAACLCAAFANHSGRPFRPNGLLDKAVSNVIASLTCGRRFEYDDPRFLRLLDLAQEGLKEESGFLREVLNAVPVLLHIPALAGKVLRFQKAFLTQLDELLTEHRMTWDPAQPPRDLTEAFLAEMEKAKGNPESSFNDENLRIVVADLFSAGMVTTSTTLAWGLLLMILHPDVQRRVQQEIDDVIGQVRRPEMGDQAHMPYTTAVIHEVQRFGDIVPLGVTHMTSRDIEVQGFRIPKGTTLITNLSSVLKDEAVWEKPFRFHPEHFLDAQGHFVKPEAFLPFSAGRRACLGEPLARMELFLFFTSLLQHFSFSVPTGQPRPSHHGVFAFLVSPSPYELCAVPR

Cytochrome P450 2C9 = Cytochrome P450 2C9 (Homo sapiens, UniProt P11712); assay: Inhibition of CYP2C9 up to 50 uM; type: ADME
Cytochrome P450 2C9, sequence (P11712 whole entry): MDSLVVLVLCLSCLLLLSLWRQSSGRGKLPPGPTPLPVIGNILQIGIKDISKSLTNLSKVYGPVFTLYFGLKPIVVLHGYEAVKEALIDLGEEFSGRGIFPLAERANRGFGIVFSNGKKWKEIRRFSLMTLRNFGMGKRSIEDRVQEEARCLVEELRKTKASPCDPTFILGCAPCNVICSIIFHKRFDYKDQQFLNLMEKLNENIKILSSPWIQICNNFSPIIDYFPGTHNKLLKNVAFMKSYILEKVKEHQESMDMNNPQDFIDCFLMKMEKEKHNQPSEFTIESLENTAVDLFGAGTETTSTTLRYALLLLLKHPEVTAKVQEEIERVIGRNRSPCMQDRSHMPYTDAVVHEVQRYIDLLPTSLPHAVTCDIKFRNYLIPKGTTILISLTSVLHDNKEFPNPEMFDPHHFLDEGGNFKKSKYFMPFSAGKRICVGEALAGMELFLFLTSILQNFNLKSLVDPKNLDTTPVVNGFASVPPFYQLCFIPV

Cytochrome P450 2C19 = Cytochrome P450 2C19 (Homo sapiens, UniProt P33261); assay: Inhibition of CYP2C19 up to 50 uM; type: ADME
Rattus norvegicus [26] = assay: Inhibition of haloperidol-induced catalepsy in po dosed rat administered 30 mins before haloperidol challenge; type: functional, organism-based

EC50 [1]: > 30 µM
SMILES: CS(=O)(=O)Nc1nccc(/C=C/c2ccccc2)n1

EC50 [1]: 0.2 µM
Emax [2]: 94%
SMILES: Cc1cnc(N)nc1/C=C/c1ccccc1

EC50 [1]: 4.5 µM
Emax [2]: 99%
SMILES: Nc1nccc(/C=C/c2cccc(F)c2)n1

EC50 [1]: 16.4 µM
Emax [2]: 55%
SMILES: Nc1nccc(/C=C/c2cccnc2)n1

EC50 [1]: 0.8 µM
Emax [2]: 99%
SMILES: Cc1cc(/C=C/c2ccccc2)nc(N)n1

EC50 [1]: 6.9 µM
Emax [2]: 67%
SMILES: Cc1nccc(/C=C/c2ccccc2)n1

EC50 [1]: 15.8 µM
Emax [2]: 72%
SMILES: Nc1cncc(/C=C/c2ccccc2)n1

EC50 [1]: > 30 µM
SMILES: CNc1nccc(/C=C/c2ccccc2)n1

EC50 [1]: 1.6 µM
Emax [2]: 88%
SMILES: Cc1nc(N)nc(/C=C/c2ccccc2)c1C

EC50 [1]: > 30 µM
SMILES: Nc1nccc(-c2cc3ccccc3s2)n1

EC50 [1]: > 30 µM
SMILES: Cc1ccccc1/C=C/c1ccnc(N)n1

EC50 [1]: 0.6 µM
Emax [2]: 95%
SMILES: Nc1nc(/C=C/c2ccccc2)cc(C(F)(F)F)n1

EC50 [1]: 5 µM
Emax [2]: 82%
SMILES: CCOC(=O)C(=O)Nc1nccc(/C=C/c2ccccc2)n1

EC50 [1]: 4.5 µM
Emax [2]: 106%
SMILES: Nc1nccc(/C=C/c2ccc(F)cc2)n1

EC50 [1]: > 30 µM
SMILES: Nc1nc(O)cc(/C=C/c2ccccc2)n1

EC50 [1]: > 30 µM
SMILES: Nc1cc(/C=C/c2ccccc2)nc(N)n1

EC50 [1]: > 30 µM
SMILES: Nc1nccc(CCc2ccccc2)n1

EC50 [1]: > 30 µM
SMILES: Nc1nccc(-c2ccc3ccccc3c2)n1

EC50 [1]: > 30 µM
SMILES: N#Cc1cccc(/C=C/c2ccnc(N)n2)c1

EC50 [1]: 4.1 µM
Emax [2]: 98%
SMILES: Nc1nccc(/C=C/c2cccs2)n1

EC50 [1]: 4.9 µM
Emax [2]: 58%
SMILES: Nc1nccc(-c2cc3ccccc3o2)n1

EC50 [1]: 2 µM
Emax [2]: 106%
SMILES: COc1cc(/C=C/c2ccccc2)nc(N)n1

EC50 [1]: 9.4 µM
Emax [2]: 94%
SMILES: Nc1nccc(/C=C/c2ccco2)n1

EC50 [1]: > 30 µM
SMILES: Nc1ncc([C@@H]2C[C@H]2c2ccccc2)cn1

EC50 [1]: 20 µM
Emax [2]: 86%
SMILES: Nc1nccc(C#Cc2ccccc2)n1

EC50 [1]: 1.3 µM
Emax [2]: 94%
SMILES: Nc1ncc(Br)c(/C=C/c2ccccc2)n1

concentration at 0.5 h [3]: 33.8 µM
Kp at 0.5 h [4]: 2.9
EC50 [1]: 1 µM
Emax [2]: 106%
EC50 [5]: > 30 µM
IC50 [6]: > 30 µM
EC50 [7]: > 10 µM
EC50 [8]: > 10 µM
EC50 [9]: 1 µM
IC50 [10]: > 10 µM
Activity [11]: > 50%
Activity [12]: > 50%
Activity [13]: > 50%
Papp A→B [14]: 41.9 ×10⁻⁶ cm/s
Papp B→A [15]: 19.6 ×10⁻⁶ cm/s
fraction unbound [16]: 0.1
Stability [17]: 62%
Stability [18]: 62%
QH (Rattus norvegicus [19]): 83%
QH (Homo sapiens): 83%
clearance [20]: 75 mL/min/kg
Vd [21]: 2.7 L/kg
MRT [22]: 36 min
bioavailability [23]: 51%
concentration at 0.5 h [24]: 11.6 µM
concentration at 0.5 h [25]: 0.7 µM
inhibition (INH) (Cytochrome P450 3A4): Not Active
inhibition (INH) (Cytochrome P450 2D6): Not Active
inhibition (INH) (Cytochrome P450 2C9): Not Active
inhibition (INH) (Cytochrome P450 2C19): Not Active
SMILES: Nc1nccc(/C=C/c2ccccc2)n1
Activity (Rattus norvegicus [26]): Dose-dependent effect
inhibition (Rattus norvegicus [26]): Dose-dependent effect

EC50 [1]: > 30 µM
SMILES: N#Cc1ccccc1/C=C/c1ccnc(N)n1

EC50 [1]: 1.6 µM
Emax [2]: 102%
SMILES: Nc1ncc(Cl)c(/C=C/c2ccccc2)n1

EC50 [1]: 11.7 µM
Emax [2]: 92%
SMILES: Nc1nccc(/C=C/c2ccccn2)n1

EC50 [1]: > 30 µM
SMILES: Nc1nccc(/C=C/c2ccncc2)n1

EC50 [1]: 5.8 µM
Emax [2]: 92%
SMILES: Nc1cccc(/C=C/c2ccccc2)n1

EC50 [1]: 7.8 µM
Emax [2]: 115%
SMILES: Sc1nccc(/C=C/c2ccccc2)n1

EC50 [1]: > 30 µM
SMILES: CN(C)c1nccc(/C=C/c2ccccc2)n1

EC50 [1]: > 30 µM
SMILES: N#Cc1ccc(/C=C/c2ccnc(N)n2)cc1

EC50 [1]: > 30 µM
SMILES: Cc1cccc(/C=C/c2ccnc(N)n2)c1

EC50 [1]: > 30 µM
SMILES: C(=C\c1ccnc(-c2ccccc2)n1)/c1ccccc1

EC50 [1]: > 30 µM
SMILES: Cc1ccc(/C=C/c2ccnc(N)n2)cc1

EC50 [1]: 2.9 µM
Emax [2]: 101%
SMILES: Nc1nccc(/C=C/c2ccccc2F)n1
